In ChEMBL document CHEMBL4020758, “Anti-atherosclerotic activities of flavonoids from the flowers of Helichrysum arenarium L. MOENCH through the pathway of anti-inflammation” (Bioorg Med Chem Lett, 2017):
Active and inactive are the calls of the source.

Legend:
A7R5 [1] = assay: Antiproliferative activity against rat A7r5 cells at 10 uM after 24 hrs by MTT assay; assay type: functional, cell-based
A7R5 [2] = assay: Antiproliferative activity against rat A7r5 cells at 50 uM after 24 hrs by MTT assay; assay type: functional, cell-based
A7R5 [3] = assay: Antiproliferative activity against rat A7r5 cells at 100 uM after 24 hrs by MTT assay; assay type: functional, cell-based
Thoracic aorta [4] = assay: Anti-atherosclerosis activity in Sprague-Dawley rat thoracic aortic vascular ring endothelial injury model assessed as reduction in vascular endothelial proliferation after 13 days by hematoxylin and eosin staining based assay; assay type: functional, tissue-based
Thoracic aorta [5] = assay: Anti-atherosclerosis activity in Sprague-Dawley rat thoracic aortic vascular ring endothelial injury model assessed as decrease in CRP level at 50 uM by ELISA; assay type: functional, tissue-based
Thoracic aorta [6] = assay: Anti-atherosclerosis activity in Sprague-Dawley rat thoracic aortic vascular ring endothelial injury model assessed as decrease in CRP level at 25 uM by ELISA; assay type: functional, tissue-based
Thoracic aorta [7] = assay: Anti-atherosclerosis activity in Sprague-Dawley rat thoracic aortic vascular ring endothelial injury model assessed as decrease in VEGF level at 50 uM by ELISA; assay type: functional, tissue-based
Thoracic aorta [8] = assay: Anti-atherosclerosis activity in Sprague-Dawley rat thoracic aortic vascular ring endothelial injury model assessed as decrease in JNK2 level at 50 uM by ELISA; assay type: functional, tissue-based
RAW264.7 = assay: Anti-inflammatory activity in mouse RAW264.7 cells assessed as inhibition of LPS/IFN-induced NO production at 10 to 20 uM measured 48 hrs post LPS/IFN challenge by Griess assay; assay type: functional, cell-based
Thoracic aorta [9] = assay: Anti-atherosclerosis activity in Sprague-Dawley rat thoracic aortic vascular ring endothelial injury model assessed as decrease in p38 level at 25 to 50 uM by ELISA; assay type: functional, tissue-based
Thoracic aorta [10] = assay: Anti-atherosclerosis activity in Sprague-Dawley rat thoracic aortic vascular ring endothelial injury model assessed as appearance of smooth vascular endothelial surface after 13 days by hematoxylin and eosin staining based assay; assay type: functional, tissue-based
Thoracic aorta [11] = assay: Anti-atherosclerosis activity in Sprague-Dawley rat thoracic aortic vascular ring endothelial injury model assessed as decrease in VEGF level at 25 uM by ELISA; assay type: functional, tissue-based
Thoracic aorta [12] = assay: Anti-atherosclerosis activity in Sprague-Dawley rat thoracic aortic vascular ring endothelial injury model assessed as decrease in CRP level by ELISA; assay type: functional, tissue-based
Thoracic aorta [13] = assay: Anti-atherosclerosis activity in Sprague-Dawley rat thoracic aortic vascular ring endothelial injury model assessed as decrease in JNK2 level at 25 uM by ELISA; assay type: functional, tissue-based
Thoracic aorta [14] = assay: Anti-atherosclerosis activity in Sprague-Dawley rat thoracic aortic vascular ring assessed as restoration of injured vessel after 13 days by hematoxylin and eosin staining based assay; assay type: functional, tissue-based

O=C1C[C@@H](c2ccc(O)c(O)c2)Oc2cc(O)cc(O)c21
inactive: Activity (A7R5 [1]) | Activity (A7R5 [3]) | Activity (Thoracic aorta [4])
active: Activity (A7R5 [2]) | Activity (Thoracic aorta [5]) | Activity (Thoracic aorta [6]) | Activity (Thoracic aorta [7]) | Activity (Thoracic aorta [8]) | inhibition (RAW264.7) | Activity (Thoracic aorta [9]) | Activity (Thoracic aorta [10])

C[C@@H]1O[C@@H](O[C@H]2[C@H](Oc3cc(O)c4c(c3)O[C@H](c3ccc(O)cc3)CC4=O)O[C@H](CO)[C@@H](O)[C@@H]2O)[C@H](O)[C@H](O)[C@H]1O
active: Activity (Thoracic aorta [5]) | Activity (Thoracic aorta [7]) | Activity (Thoracic aorta [8]) | inhibition (RAW264.7) | Activity (Thoracic aorta [9]) | Activity (Thoracic aorta [10])
inactive: Activity (A7R5 [1]) | Activity (A7R5 [2]) | Activity (A7R5 [3]) | Activity (Thoracic aorta [4])

O=c1cc(-c2ccc(O)c(O)c2)oc2cc(O[C@@H]3O[C@H](CO)[C@@H](O)[C@H](O)[C@H]3O)cc(O)c12
inactive: Activity (A7R5 [1]) | Activity (A7R5 [3]) | Activity (Thoracic aorta [4])
active: Activity (A7R5 [2]) | Activity (Thoracic aorta [5]) | Activity (Thoracic aorta [6]) | Activity (Thoracic aorta [7]) | inhibition (RAW264.7) | Activity (Thoracic aorta [10])

O=c1cc(-c2ccc(O)c(O)c2)oc2cc(O)cc(O)c12
active: Activity (Thoracic aorta [5]) | Activity (Thoracic aorta [6]) | Activity (Thoracic aorta [7]) | Activity (Thoracic aorta [11]) | inhibition (RAW264.7) | Activity (Thoracic aorta [10])
inactive: Activity (A7R5 [1]) | Activity (A7R5 [2]) | Activity (A7R5 [3]) | Activity (Thoracic aorta [4])

O=c1c(O)c(-c2ccc(O)cc2)oc2cc(O)cc(O)c12
inactive: Activity (A7R5 [1]) | Activity (A7R5 [3]) | Activity (Thoracic aorta [4])
active: Activity (A7R5 [2]) | Activity (Thoracic aorta [5]) | Activity (Thoracic aorta [6]) | Activity (Thoracic aorta [12]) Dose-dependent effect | Activity (Thoracic aorta [7]) | Activity (Thoracic aorta [11]) | Activity (Thoracic aorta [8]) | Activity (Thoracic aorta [13]) | inhibition (RAW264.7) | Activity (Thoracic aorta [10])

C[C@@H]1O[C@@H](OC[C@H]2O[C@@H](Oc3cc(O)c4c(c3)O[C@H](c3ccc(O)cc3)CC4=O)[C@H](O)[C@@H](O)[C@@H]2O)[C@H](O)[C@H](O)[C@H]1O
inactive: Activity (A7R5 [1]) | Activity (A7R5 [2]) | Activity (A7R5 [3]) | Activity (Thoracic aorta [4])
active: Activity (Thoracic aorta [5]) | Activity (Thoracic aorta [7]) | inhibition (RAW264.7) | Activity (Thoracic aorta [9]) | Activity (Thoracic aorta [10])

O=c1c(O[C@@H]2O[C@H](CO)[C@@H](O)[C@H](O)[C@H]2O)c(-c2ccc(O)cc2)oc2cc(O)cc(O)c12
active: Activity (A7R5 [2]) | Activity (Thoracic aorta [4]) | Activity (Thoracic aorta [5]) | Activity (Thoracic aorta [6]) | Activity (Thoracic aorta [7]) | Activity (Thoracic aorta [8]) | inhibition (RAW264.7) | Activity (Thoracic aorta [14]) | Activity (Thoracic aorta [10])
inactive: Activity (A7R5 [1]) | Activity (A7R5 [3])
